Data set [1] has as its system subclone F28-7 cells of FM3A cell line originating from a mouse mammary tumor. The data set can be described thus: Toxicity of test compound against subclone F28-7 cells of FM3A cell line (cell proliferation). Format: cell-based. The conditions noted are these: for EC50: Mus musculus, FM3A; for Rate (%) of proliferation of cells of the F28-7 cell line: 48 hours. The procedure: Cells of subclone F28-7 cell line of a mouse mammary tumor, which is a wild type cell line of the FM3A cell line originating from a mouse mammary tumor, were used as the test cells. The culture medium to be used for cultivation of the cells of the subclone F28-7 cell line was prepared by supplementing an ES medium with 2% of a heat-inactivated fetal bovine serum. The cultivation of the subclone F28-7 cell line under test was effected in this serum-supplemented ES medium at 37° C. in air containing 5% CO2.
After the pre-cultivation was effected, the cell density of cells of the subclone F28-7 cell line which had entered the logarithmic proliferation phase was adjusted to a level of 5×10^4 cells/ml by diluting the culture of the cells with a volume of the fresh culture medium. Thus, there was prepared a cell suspension of cells of the subclone F28-7 cell line as cultured.
For the solution of the test compound, there was used the same solution as that which was hereinbefore prepared in the test for the determination of the antimalarial activity of the test compound against the proliferation of malarial parasite.
The culture medium to be used for the cultivation of the subclone F28-7 cell line above mentioned was placed in the individual wells of a multidish 24-wells. Then, for the treated test groups, the solution of the test compound was added in an amount of 5˜10 microliters to the culture medium in each well of the incubation plate so as to adjust a final concentration of the test compound as added to be 1×10^−4 to 1×10^−6 M.
The test was carried out in duplicate or triplicate. On the other hand, for the control test groups (untreated), no test compound was added to each well, but instead thereof a sterilized water, DMF or DMSO was added to each well in an amount of 10 μl. Then, the cell suspension of cells of the subclone F28-7 cell line as already prepared in the above was dispensed in an amount of 990-995 μl to each well by pipetting. The pipetting was effected carefully and gently, so that the cells as added were evenly suspended in the culture medium in each well. Thereafter, the cells of subclone F28-7 cell line were incubated for 48 hours under the aforesaid cultivating conditions. Then, the number of the cells of the subclone F28-7 cell line was counted by means of a microcell counter (CC-108, Toa Medical Electric Co.) for the cell culture as obtained in the individual wells of both the treated test groups and the control test (untreated) groups.
The inhibitory activity of the test compound against the proliferation of cells of the subclone F28-7 cell line was subsequently estimated from such value of the rate (%) of the proliferation of cells of the subclone F28-7 cell line which is defined by the undermentioned equation with reference to the counted number of cells of the subclone F28-7 cell line in the cell culture contained in each well and having been incubated in the presence of the test compound added for the treated test group, and with reference to the counted number of cells of the subclone F28-7 cell line having been incubated in the absence of the test compound for the control test group. The toxicity of the test compound was thus evaluated from the value of the rate (%) of proliferation of cells of the subclone F28-7 cell line so estimated. [formula]

The test system of another data set is Plasmodium falciparum. The data set can be described thus: In vitro test of inhibitory activity against proliferation of malarial parasites in human red blood cells. The conditions noted are these: for Selective toxicity: ratio of EC50 for the F28-7 cell line to EC50 for the malarial parasite (P. falciparum FCR-3 strain); for Rate (%) of proliferation of malarial parasite: 72 hours. Format: cell-based. The procedure: In this test Example, two strains of Plasmodium falciparum, namely strain FCR-3 (ATCC 30932) and strain Honduras-1 (ATCC 30950) were used as the malarial parasites to be tested, and each malarial strain was incubated separately in vitro as described below. […] The resulting culture medium as supplemented with the human serum was then adjusted to have a hematocrit level (namely, a ratio of the total volume of the red blood cells to the volume of the liquid culture medium comprising the suspended red blood cells) of 5%, and thereafter the culture medium as adjusted was placed in individual wells of 24-well incubation microplates. The culture medium in each well was inoculated with Plasmodium falciparum under test. The initial rate (%) of infection of the red blood cells with the malarial parasite in individual wells was then adjusted to a value of 0.1% at the start of the incubation. Thereafter, there was carried out the incubation of the red blood cells along with the infecting Plasmodium falciparum. This incubation was effected at 36.5° C. in an atmosphere comprising 5.0% oxygen, 5.0% carbon dioxide and 90% nitrogen.
The culture medium present in each well was daily changed freshly. At the time when the rate (%) of infection of the red blood cells with the malarial parasite increased to reach a value of 4%, the transfer of the incubated cultures to another incubation microplates was conducted. Thus, the cultures of the malarial parasites under test were prepared.
By the way, the rate (%) of infection of the red blood cells with the malarial parasite as above-mentioned was evaluated by a procedure that comprised removing a sample from the culture of the parasitized red blood cells in each well, preparing thin blood film specimen containing the red blood cells from each sample, staining said thin blood film specimen by means of Giemsa staining or Diff-Qick staining method, counting the number of the stained red blood cells as infected with the malarial parasite per one thin blood film, under a microscope (oil immersion; 1,000×), and calculating the rate (%) of infection of the red blood cells with malarial parasite according to the undermentioned equation: [formula]
In turn, the abovementioned culture of the parasitized red blood cells as prepared in the above was subjected to a centrifugation to collect the red blood cells which had been infected with the malarial parasite. The infected red blood cells so collected were washed with an PRMI 1640 medium supplemented with the human serum, and then were added with such red blood cells which were not yet infected with the malarial parasite. Thus, there was prepared such a culture of the malarial parasite having infected the red blood cells, in which the initial rate (%) of infection of the red blood cells with the malarial parasite had firstly been adjusted to a value of 0.3%. The hematocrit level of this culture of the malarial parasite so prepared at this time point was 3%.
On the other hand, the compound to be tested in the present experiments was previously prepared in the form of a solution of each compound dissolved in a sterilized water, dimethylformamide (DMF) or dimethylsulfoxide (DMSO).
(i) The culture medium to be used for incubation of malarial parasite as above-mentioned was placed in individual wells of a multidish 24-wells. Then, for the treated test groups, each solution of the test compound as previously prepared in the above was added in an amount of 5 to 10 microliters (μl) into each well containing said culture medium therein. Then, the concentration of the test compound as added to the culture medium present in the individual wells of the multidish 24-well microplates was adjusted to different values in the individual wells. The test was carried out in duplicate or triplicate. On the other hand, for the control test groups (untreated), no test compound was added to each well, but instead thereof sterilized water, DMF or DMSO was added thereto in an amount of 10 μl.

Data set [2] relates to Plasmodium berghei NK65 strain. As to the kind of experiment: In vivo test of antimalarial activity against malarial parasite in infected ICR mice. Particulars: ICR mice infected with P. berghei NK65, dose of 5 mg/kg, printed 'intravenous injection', once a day on Day 0 and Day 1, blood read on Day 4.
Description: As mice for this test, there were used ICR mice (male) of 5-weeks old with body weight of 26-31 g (five mice per group). As the source of the malarial infection for this experiment, murine malarial parasite, Plasmodium berghei NK65 strain was used.
Blood sample was drawn by cardiac puncture from each of the donor ICR mice which had been infected with Plasmodium berghei NK65 strain. […]
For sake of convenience, a time schedule was so set that the time of inoculating the test mice with the malarial parasite by intravenous injection of the cell suspension of the parasitized red blood cells was Day 0. […] For both of the untreated test group and the treated test group, the rate (%) of infection of the red blood cells with the malarial parasite in each of the mouse blood samples was evaluated. […] The rate (%) of inhibition against the proliferation of the malarial parasite used here indicates such value as calculated by the following equation: [formula] where A means the average rate (%) of infection of the red blood cells with the malarial parasite as effected in the untreated test group, and B means the average rate (%) of infection of the red blood cells with the malarial parasite as effected in the treated test group.
A further data set deals with ICR mice. As to the kind of experiment: Acute toxicity, intraperitoneal injection. The class given is in vivo. The conditions noted are these: 14th day, 3 mice per group. The procedure:
(§1) SF2487 substance (Na salt) in the form of a solution dissolved in a physiological saline containing 10% DMSO was administered to ICR mice (5-weeks old, 3 mice per group) in different doses by intraperitoneal injection.

The nature of data set [3]: Acute toxicity, intraperitoneal injection. The class given is in vivo. The conditions noted are these: mouse, in vivo, ip; ICR mice, intraperitoneal administration, 14th day. The procedure:
as §1

The nature of a further data set: Solubility in solvents. Format: physicochemical.
Where [4] appears, read: read-out: EC50 values, namely molar concentrations of test compound for the 50% inhibition of proliferation, the F28-7 cell line, F28-7 cell line, 48 hours incubation.
[5] abbreviates: read-out: EC50 values, namely molar concentrations of test compound for the 50% inhibition of proliferation, P. falciparum FCR-3 strain, 72 hours incubation.
The mark [6] stands for this setting: 48 h, read-out: EC50 values, namely molar concentrations of test compound for the 50% inhibition of proliferation, the F28-7 cell line.
Setting [7] is: 1 × 10^−7 Molar test compound in culture medium.

Broadly, the LD50 is the dose expected to kill half of the subjects tested. Read a high LD50 as a less toxic substance.

Structures are written as SMILES. Structures can show the parent of a compound that is named as a salt. Where two headings read alike, the source gives them in different places. Some results are limits rather than exact numbers.

Consider `CCc1nc(N)nc(N)c1-c1ccc(Cl)cc1` [Pyrimethamine, reference compound], for which the EC50 in data set [1] (setting [4]) is 120 nM; in the data set with Plasmodium falciparum (setting [5]), 1 nM. Further, in the data set with Plasmodium falciparum, the Selective toxicity is 120.

Consider `C=C[C@H]1C[N@@]2CC[C@H]1C[C@H]2[C@H](O)c1ccnc2ccc(OC)cc12` [Quinine, reference compound], for which the EC50 in data set [1] (setting [4]) came to 100000 nM; in the data set on Plasmodium falciparum (setting [5]), 110 nM. Further, in the data set with Plasmodium falciparum, the Selective toxicity was 910.

Regarding `OC(c1cc(C(F)(F)F)nc2c(C(F)(F)F)cccc12)C1CCCCN1` (stereo not drawn) [Mefloquine, reference compound], the EC50 in data set [1] (setting [4]) was found to be 2900 nM; with Plasmodium falciparum (setting [5]), 32 nM. Moreover, the Selective toxicity in the data set with Plasmodium falciparum was found to be 91.

Take `CCN(CC)CCCC(C)Nc1ccnc2cc(Cl)ccc12` (stereo not drawn) [Chloroquine, reference compound]: the values for the EC50 (in data set [1] (setting [6]); in the data set on Plasmodium falciparum (setting [5])) were 32000 nM and 18 nM, respectively.

With `C[C@@H]1CC[C@H]2[C@@H](C)C(=O)O[C@@H]3O[C@@]4(C)CC[C@@H]1[C@]32OO4` [Artemisinin, reference compound], the EC50 in data set [1] (setting [4]) is 10000 nM; in the data set with Plasmodium falciparum (setting [5]) it was 7.8 nM.

As for `C=C1OC(O)=C(C(=O)C(OC)C2C(/C=C(\CO)C3CCC(C)C(/C(C)=C/CC4OC(C)(C5CCC(C(O)CC)O5)CC4C)O3)CC(C)C(O)C2CO)C1=O` (stereo not drawn) [SF2487 substance Na salt], the “rate (%) of inhibition against the proliferation of the malarial parasite” value in data set [2] came out at 80%. Also, the “Rate (%) of proliferation of cells of the F28-7 cell line” value in data set [1] (1 × 10^−5 Molar test compound in culture medium) came to 0%; in data set [1] (1 × 10^−6 Molar test compound in culture medium) it was 58%; in data set [1] (setting [7]), 100%; in data set [1] (3 + 10^−5 Molar test compound in culture medium), 0%; in data set [1] (3 × 10^−6 Molar test compound in culture medium), 45%; in data set [1] (3 × 10^−7 Molar test compound in culture medium), 100%. In addition, the “Rate (%) of proliferation of cells of the F28-7 cell line” value in data set [1] (7 × 10^−6 Molar test compound in culture medium) was determined as 10%; in data set [1] (7 × 10^−7 Molar test compound in culture medium), 70%. The EC50 in data set [1] (setting [6]) was 1600 nM; in data set [1] (read-out: concentration necessary to inhibit the proliferation of cells of the F28-7 cell line by 50% (EC50)) it was 1600 nM; in the data set on Plasmodium falciparum (Plasmodium falciparum, Erythrocyte, read-out: concentration necessary to inhibit the proliferation of malarial parasite by 50% (EC50)), 2 nM. Moreover, the figures for the mortality entry in the data set with ICR mice (12.5 mg/kg intraperitoneal injection) and with ICR mice (25 mg/kg intraperitoneal injection) were “all three mice survived” and “one mouse died among three mice”, respectively. The same molecule had an LD50 at 14 days in data set [3] of at least 25 mg/kg. In addition, the “Rate (%) of proliferation of malarial parasite” value turned out to be 0% in the data set on Plasmodium falciparum (setting [7]); 10% with Plasmodium falciparum (1 × 10^−8 Molar test compound in culture medium); 60% in the data set with Plasmodium falciparum (1 × 10^−9 Molar test compound in culture medium); 100% in the data set with Plasmodium falciparum (1 × 10^−10 Molar test compound in culture medium); 5% with Plasmodium falciparum (3 × 10^−8 Molar test compound in culture medium); 40% in the data set with Plasmodium falciparum (3 × 10^−9 Molar test compound in culture medium). Besides, the “Rate (%) of proliferation of malarial parasite” value in the data set on Plasmodium falciparum (3 × 10^−10 Molar test compound in culture medium) is reported as 100%; with Plasmodium falciparum (7 × 10^−8 Molar test compound in culture medium), 0%; with Plasmodium falciparum (7 × 10^−9 Molar test compound in culture medium) it was 25%; with Plasmodium falciparum (7 × 10^−10 Molar test compound in culture medium) it was 85%. Further, in the data set with Plasmodium falciparum, the Selective toxicity is on record as 800. For the same molecule, the solubility entry is given as “soluble” in “Solubility in solvents” (in chloroform, ethyl acetate and dimethylsulfoxide); “slightly soluble” in the data set “Solubility in solvents” (in ethanol); “hardly soluble” in “Solubility in solvents” (in water).

These data come from US6939892B2, “Compositions for treating or preventing malaria and method of treating malaria” (Zaidan Hojin Biseibutsu Kagaku Kenkyu Kai, priority 2000, dated 2005).
